Results from patent US11867689B2, “Engineered renal tissues, arrays thereof, and methods of making the same” (Organovo, Inc., priority 2014, dated 2024).

Columns and labels:
3D renal tubule model [1] = type: cell-based, human
Text: To reduce the thickness and cellularity of the interstitial layer, the cell ratio was changed to 50% fibroblasts/50% HUVEC the concentration of the cells was 1.25×10^8 cells/mL. The interstitial layer of the renal proximal tubule model is composed of renal fibroblasts and HUVECs in Novogel® 2.0. […] E-cadherin (green) at the lateral membranes between RPTECs corresponds to tight junctions (FIGS. 9A, B and C). Further, the basement membrane corresponding to the interstitial layer produces collagen (FIGS. 9A and B; stained with red). H & E staining is shown (FIG. 10A), and brush borders are indicated (FIG. 11A, arrows). Trichrome staining indicates collagen secretion (FIGS. 10B, blue and 11B, arrows), and CD31 staining indicates the presence of HUVEC networks (FIG. 12, asterisks). […] As a positive control, hTERT-RPTEC cells cultured as a monolayer in 2D were assessed. As a negative control, bioprinted renal interstitial tissues without epithelium were also assayed to verify that the detected GGT activity was epithelial-specific. At culture day 3, 10, 14, 21, or 28, 2D hTERT-RPTEC, 3D interstitium tissues, or 3D bioprinted tubule tissues were homogenized and assessed for functional GGT enzymatic activity using a colorimetric assay available from Sigma-Aldrich. […]

[2] = tested on: epithelial layer comprising primary cells (070615-RPTEC); test: GGT activity, renal tubule model with primary epithelial layer; type: cell-based, human; conditions: primary cells (070615-RPTEC) compared with hTERT-RPTEC; FIG. 23B
Protocol: To assess the maturity and function of the epithelial component of the 3D bioprinted tubule model, tissues were homogenized and assayed for gamma glutamyl-transferase (GGT) activity. […] As a positive control, hTERT-RPTEC cells cultured as a monolayer in 2D were assessed. […] At culture day 3, 10, 14, 21, or 28, 2D hTERT-RPTEC, 3D interstitium tissues, or 3D bioprinted tubule tissues were homogenized and assessed for functional GGT enzymatic activity using a colorimetric assay available from Sigma-Aldrich.

[3] = tested on: 3D renal tubule model (interstitial tissue and epithelial tissue); type: cell-based, human
[4] = tested on: interstitial tissue alone
3D renal tubule model [5] = test: histology of treated 3D renal tubule models; type: cell-based, human; conditions: 50 ng/mL TGFβ; FIG. 22D

Compound	GGT activity (3D renal tubule model [1])	sensitivity in the GGT assay, primary versus immortalized cells [2]	toxicity by alamarBlue assay [3]	toxicity by alamarBlue assay [4]	Masson's trichrome staining histology (fibrosis) (3D renal tubule model [5])
N.N.[Cl][Pt][Cl] [cisplatin]	dose dependent reduction in GGT activity	enhanced sensitivity	–	–	–
C[C@@H]1[C@H](O)[C@@H](C)/C=C/C=C/C=C/C=C/C=C/C=C/C=C/[C@H](O[C@@H]2O[C@H](C)[C@@H](O)[C@H](N)[C@@H]2O)C[C@@H]2O[C@](O)(C[C@@H](O)C[C@@H](O)[C@H](O)CC[C@@H](O)C[C@@H](O)CC(=O)O[C@H]1C)C[C@H](O)[C@H]2C(=O)O [AmpB, amphotericin B]	dose dependent reduction in GGT activity	–	dose dependent cytotoxicity	resistant	–
TGFβ: listed among common cytotoxic agents; treatment at 50 ng/mL increased fibrosis	–	–	–	–	increase in fibrosis without the overt cell death
